Data taken from article PMC8259862, “Latency, thermal stability, and identification of an inhibitory compound of mirolysin, a secretory protease of the human periodontopathogen Tannerella forsythia” (Journal of Enzyme Inhibition and Medicinal Chemistry, 2021).
Values joined by “and” are separate entries in the source; they are usually repeats but may differ in a detail not shown here. Equal entries are not always repeated.

Columns and labels:
mirolysin [1] = target: T1, mirolysin (Tannerella forsythia, UniProt A0A0F7IPS1); experiment: Screening round II: inhibitory activity of the 21 fragments against mirolysin (FTC-casein); format: biochemical; conditions: molar ratio 50:1 (compound:enzyme), read-out: reduction of mirolysin activity (screening round II)
T1 sequence (A0A0F7IPS1 entry or part of it): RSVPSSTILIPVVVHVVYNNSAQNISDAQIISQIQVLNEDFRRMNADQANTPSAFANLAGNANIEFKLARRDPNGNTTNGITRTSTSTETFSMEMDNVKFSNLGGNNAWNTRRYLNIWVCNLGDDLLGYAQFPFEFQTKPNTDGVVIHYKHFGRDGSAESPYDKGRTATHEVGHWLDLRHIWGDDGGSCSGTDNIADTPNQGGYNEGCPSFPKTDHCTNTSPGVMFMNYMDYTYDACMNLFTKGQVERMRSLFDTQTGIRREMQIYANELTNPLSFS
Description: (§1) Mirolysin activity was routinely determined in assay buffer (50 mM Tris, 150 mM NaCl, 5 mM CaCl2, 0.02% NaN3, pH 7.5) supplemented with 0.05% Pluronic F-127, employing Azocoll or FTC-caseins as a substrate. Briefly, an Azocoll suspension was added to the sample in Eppendorf tubes and vigorously shaken for 15 min–2 h at 37 °C. Undigested Azocoll was removed by centrifugation (16,100 × g, 5 min, 4 °C), and the absorbance at 410 nm was measured using a Sunrise absorbance microplate reader (Tecan, Männedorf, Switzerland). In the case of FTC-casein, analysed samples were transferred into wells of a black microtiter plate (Nunc, Roskilde, Denmark), and then the FTC-casein solution was added. Proteolytic activity was recorded as an increase in fluorescence (excitation/emission = 485/538 nm) over time using a SpectraMax Gemini EM reader (Molecular Devices, San Jose, CA, USA).
Mirolysin (40 nM) was mixed with each of the 21 compounds (2 µM) (Supplementary Table 1) in assay buffer (50 mM Tris, 150 mM NaCl, 5 mM CaCl2, 0.02% NaN3, 0.05% Pluronic F-127, pH 7.5) in a 96-well plate (total volume, 100 µl). After 15 min at 37 °C, 100 µl of the substrate solution FTC-casein (100 µg/ml) was added, and substrate hydrolysis was monitored. The percentage of inhibition was determined relative to the sample containing the enzyme without any compound added (control sample). […]

mirolysin [2] = target: T1, mirolysin; experiment: 2D NMR titration of 15N-labelled mirolysin (KD); format: binding; conditions: KD by NMR titration, estimated from peaks in fast exchange, 298 K
Description: The custom-selected Maybridge diversity library of 1500 fragments was screened using the saturation transfer difference (STD) ligand-based approach, with fragments pooled into cocktails of five fragments each. STD spectra were recorded at a concentration of 10 µM mirolysin, with the final concentration of each fragment in the sample at 1 mM. D6-DMSO was used for the lock signal. STD experiments used alternating on- and off-resonance saturation (2s saturation, Gaussian pulse, +0.6 ppm, −5 ppm, 128 scans) with water suppression using a double-pulsed-field gradient spin-echo (DPFGSE) watergate W5 double-echo sequence[32]^,[33]. Spectra were compared with a reference containing d6-DMSO only. […] Hits identified using STD–NMR, based on the intensity ratio of ligand signals between the STD experiment and a 1D reference spectrum, were validated using ^1H,^15N heteronuclear single quantum coherence (HSQC) experiments with water flip back and watergate water suppression[34]^,[35], with spectra assessed for chemical shift perturbations (CSPs) relative to a control containing d6-DMSO. […] Spectra were recorded with 40 scans, and a ^1H spectral width of 9615.4 Hz and a ^15N spectral width of 2128.9 Hz, with 2048 and 256 complex points, respectively. All experiments were recorded at 298 K using a Bruker Avance 600 MHz spectrometer (^1H frequency, 600 MHz) equipped with a 5 mm QCI cryoprobe.

mirolysin [3] = target: T1, mirolysin; experiment: Determination of KD by microscale thermophoresis; format: binding
Description: The Monolith NT.115 instrument (NanoTemper) was used to analyse binding interactions between mirolysin and compounds 9, 10, and 21. Lysine residues of mirolysin were fluorescently labelled with the Monolith NT Protein Labelling Kit RED-NHS-Red dye (NanoTemper), strictly according to the manufacturer’s instruction (a 7 M excess of dye was used). Compounds at concentrations ranging from 1.5 to 25 000 nM were incubated for 5 min at 20 °C with 20 nM mirolysin. Experiments were performed in 0.1 M Tris, 0.15 M NaCl, 5 mM CaCl2, 0.05% Pluronic-F127, 0.02% NaN3, pH 7.5. Samples were loaded into Monolith NT.115 Standard Treated glass capillaries (NanoTemper), and an initial fluorescence measurement followed by a thermophoresis measurement was carried out using 80% LED power and high microscale thermophoresis (MST) power. KD values were calculated using MO. Affinity Analysis software (NanoTemper). Each experiment was performed in triplicate.

mirolysin [4] = target: T1, mirolysin; experiment: Dose-dependent inhibition of mirolysin (Azocoll); format: biochemical
Description: as §1
Mirolysin (0.1 µM) was incubated with increasing concentrations of compounds (0–100 µM) in 50 µl assay buffer (50 mM Tris, 0.15 M NaCl, 5 mM CaCl2, 0.02% NaN3, pH 7.5) for 15 min at 37 °C, before 200 µl Azocoll suspension (15 mg/ml in assay buffer) was added.

mirolysin [5] = target: T1, mirolysin; experiment: Determination of inhibition constant (Ki) and mode of inhibition (FTC-casein); format: biochemical; conditions: for mode of inhibition: Lineweaver-Burk plot
Description: After 15 min of incubation at 37 °C, 100 µl fluorogenic protein substrate FTC-casein was added at different concentrations (5–120 µg/ml), and the residual proteolytic activity was recorded. The mode of inhibition of target proteases by the compounds was determined graphically using the Lineweaver–Burk plot using Equation (2): (2) 1/V=Km/Vmax×1/[S]+1/Vmax where V is the reaction velocity, Vmax is the maximum V, Km is the Michaelis–Menten constant, and [S] is the substrate concentration. The Ki was determined using a macro for competitive inhibition from GraphPad Prism software (La Jolla, CA, USA) and Equation (3): (3) V=Vmax×[S]/Kmobs+[S]; Kmobs=Km×(1+[I]/Ki) where Kmobs is the Michaelis–Menten constant in the presence of inhibitor, and [I] is the inhibitor concentration.

mirolysin [6] = target: T1, mirolysin; experiment: Screening of compound specificity: mirolysin; format: biochemical; conditions: read-out: decrease in mirolysin activity
Description: (§2) The residual proteolytic activity was determined employing Azocoll (12 mg/ml) or, for gingipains only, FTC-casein (50 µg/ml), as described above.

mirolase = experiment: Screening of compound specificity: mirolase; format: biochemical, Tannerella forsythia; conditions: 100 nM protease, 100 M excess of compound, Azocoll
Description: as §2

karilysin = target: T2, karilysin (Tannerella forsythia, UniProt D0EM77); experiment: Screening of compound specificity: karilysin; format: biochemical; conditions: 100 nM protease, 100 M excess of compound, Azocoll
T2 construct: made in house
T2 sequence (D0EM77 35-472): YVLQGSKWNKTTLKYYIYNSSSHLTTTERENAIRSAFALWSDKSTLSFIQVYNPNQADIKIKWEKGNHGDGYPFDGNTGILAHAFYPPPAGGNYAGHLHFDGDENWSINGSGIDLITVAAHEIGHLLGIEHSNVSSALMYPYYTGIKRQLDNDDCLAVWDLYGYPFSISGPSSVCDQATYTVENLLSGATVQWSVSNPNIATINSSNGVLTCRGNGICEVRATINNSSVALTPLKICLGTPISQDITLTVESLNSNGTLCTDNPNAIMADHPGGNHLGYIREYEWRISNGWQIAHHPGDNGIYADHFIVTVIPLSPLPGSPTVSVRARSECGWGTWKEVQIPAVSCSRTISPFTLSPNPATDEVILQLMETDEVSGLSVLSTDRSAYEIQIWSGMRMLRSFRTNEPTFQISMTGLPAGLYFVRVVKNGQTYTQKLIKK
Description: as §2

forsilysin = experiment: Screening of compound specificity: forsilysin; format: biochemical, Tannerella forsythia; conditions: 100 nM protease, 100 M excess of compound, Azocoll
Description: as §2

RgpB = target: T3, RgpB (Porphyromonas gingivalis, UniProt P95493); experiment: Screening of compound specificity: RgpB; format: biochemical; conditions: 100 nM protease, 100 M excess of compound, FTC-casein
T3 construct: His; made in house
T3 sequence (P95493 230-736): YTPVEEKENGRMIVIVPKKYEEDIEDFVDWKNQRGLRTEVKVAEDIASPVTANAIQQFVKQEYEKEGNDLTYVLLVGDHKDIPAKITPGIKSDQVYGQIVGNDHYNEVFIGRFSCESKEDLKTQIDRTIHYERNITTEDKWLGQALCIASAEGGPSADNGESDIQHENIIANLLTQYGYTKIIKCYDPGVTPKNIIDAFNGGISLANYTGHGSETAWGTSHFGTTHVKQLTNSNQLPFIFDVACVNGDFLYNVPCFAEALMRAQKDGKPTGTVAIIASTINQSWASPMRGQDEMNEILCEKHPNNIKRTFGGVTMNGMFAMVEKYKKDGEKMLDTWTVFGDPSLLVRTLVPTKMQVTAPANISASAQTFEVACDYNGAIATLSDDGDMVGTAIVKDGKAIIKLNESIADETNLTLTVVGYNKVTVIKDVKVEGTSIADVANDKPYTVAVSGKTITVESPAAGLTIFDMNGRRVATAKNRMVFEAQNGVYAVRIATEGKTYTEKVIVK
Description: as §2

Kgp = target: T4, Kgp (Porphyromonas gingivalis, UniProt B2RLK2); experiment: Screening of compound specificity: Kgp; format: biochemical; conditions: 100 nM protease, 100 M excess of compound, FTC-casein
T4 construct: made in house
Description: as §2

human thrombin = target: T5, human thrombin (Homo sapiens, UniProt P00734); experiment: Screening of compound specificity: thrombin; format: biochemical; conditions: 100 nM protease, 100 M excess of compound, Azocoll
T5 construct: purchased Merck Sigma-Aldrich
Description: as §2

human plasmin = target: T6, human plasmin (Homo sapiens, UniProt P00747); experiment: Screening of compound specificity: plasmin; format: biochemical; conditions: 100 nM protease, 100 M excess of compound, Azocoll
T6 construct: purchased Merck Sigma-Aldrich
T6 sequence (P00747 581-810 limits assumed): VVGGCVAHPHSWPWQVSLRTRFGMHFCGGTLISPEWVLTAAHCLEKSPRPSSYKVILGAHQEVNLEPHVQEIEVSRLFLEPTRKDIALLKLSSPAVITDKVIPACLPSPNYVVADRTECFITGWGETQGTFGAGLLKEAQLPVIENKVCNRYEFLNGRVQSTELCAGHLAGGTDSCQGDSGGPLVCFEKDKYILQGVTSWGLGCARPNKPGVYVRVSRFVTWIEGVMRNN
T6 sequence (P00747 97-580 partner limits assumed): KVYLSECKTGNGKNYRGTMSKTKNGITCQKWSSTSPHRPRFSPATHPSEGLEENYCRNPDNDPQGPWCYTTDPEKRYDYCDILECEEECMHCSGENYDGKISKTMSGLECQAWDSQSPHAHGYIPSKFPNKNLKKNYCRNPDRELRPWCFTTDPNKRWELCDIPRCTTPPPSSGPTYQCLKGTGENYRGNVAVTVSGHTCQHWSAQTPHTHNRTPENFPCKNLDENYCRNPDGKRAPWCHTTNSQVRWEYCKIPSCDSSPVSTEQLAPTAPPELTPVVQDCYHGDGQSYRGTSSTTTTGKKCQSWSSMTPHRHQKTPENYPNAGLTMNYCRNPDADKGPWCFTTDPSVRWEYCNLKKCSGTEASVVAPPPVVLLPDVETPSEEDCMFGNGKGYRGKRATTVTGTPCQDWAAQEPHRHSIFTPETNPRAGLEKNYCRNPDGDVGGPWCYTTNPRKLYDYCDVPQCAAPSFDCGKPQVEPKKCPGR
Description: as §2

bovine trypsin = target: T7, bovine trypsin (Bos taurus, UniProt P00760); experiment: Screening of compound specificity: trypsin; format: biochemical; conditions: 100 nM protease, 100 M excess of compound, Azocoll
T7 construct: purchased Merck Sigma-Aldrich
T7 sequence (P00760 24-246): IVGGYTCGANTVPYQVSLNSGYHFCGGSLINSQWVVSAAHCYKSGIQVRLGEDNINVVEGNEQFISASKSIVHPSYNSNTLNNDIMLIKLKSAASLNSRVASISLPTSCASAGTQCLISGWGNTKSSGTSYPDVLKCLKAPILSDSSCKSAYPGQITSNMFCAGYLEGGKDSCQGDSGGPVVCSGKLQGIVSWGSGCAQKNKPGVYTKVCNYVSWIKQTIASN
Description: as §2

[7] = target: Arg-specific gingipains, Rgp; design: method as in PMID 15361547; conditions: cited from earlier work
promirolysin (proM^wt) = experiment: Effect of compounds on promirolysin autoprocessing (activation in cis); format: biochemical, Tannerella forsythia
Description: ProM^wt (70 µM) was activated at 37 °C in 5 mM Tris, 50 mM NaCl, 0.02% NaN3, pH 8.0, alone or in the presence of a […] excess of different compounds. At specific time points, aliquots were withdrawn and analysed by SDS–PAGE (10% gels; 4 µl sample, preincubated with 1:1 (vol:vol) of 20 mM 1,10-phenanthroline for 5 min at room temperature), and measured in a proteolytic activity assay, employing FTC-casein (25 µg/ml) as a substrate.

[8] = target: Lys-specific gingipain, Kgp; design: method as in PMID 15361547; conditions: cited from earlier work
[9] = […] excess of compound, FTC-casein

| SMILES | inhibition at 2 µM (mirolysin [1]) [%] | Kd (mirolysin [2]) | Kd (mirolysin [3]) [µM] | IC50 (mirolysin [4]) [µM] | Ki (mirolysin [5]) [µM] | mode of inhibition (mirolysin [5]) | inhibition at 10 µM (mirolysin [6]) [%] | effect on mirolase activity (mirolase) | effect on karilysin activity (karilysin) | effect on forsilysin activity (forsilysin) | effect on RgpB activity (RgpB) | effect on Kgp activity (Kgp) | effect on thrombin activity (human thrombin) | effect on plasmin activity (human plasmin) | effect on trypsin activity (bovine trypsin) | other results |
| --- | --- | --- | --- | --- | --- | --- | --- | --- | --- | --- | --- | --- | --- | --- | --- | --- |
| NCc1cccc(-c2ccco2)c1 [cpd 10] | 10 to 20 | 278 µM | 9.7 | 6.6 | 22 | reversible competitive inhibitors | 20 | almost completely unaffected | almost completely unaffected | almost completely unaffected | almost completely unaffected | almost completely unaffected | almost completely unaffected | almost completely unaffected | almost completely unaffected | – |
| CN(C)C(=O)[C@H](CCCCN)NC(=O)C(=O)[C@H](CCCN=C(N)N)NC(=O)[C@H](CCCCN)NC(=O)OCc1ccccc1 [Kyt-1] | – | – | – | – | – | – | – | – | – | – | – | – | – | – | – | Ki [7]: 0.00013 µM |
| NCc1cccc2nsnc12 [cpd 9] | 10 to 20 | 72.2 µM and 72 µM | 1.1 | 2.3 | 3.2 | reversible competitive inhibitors | 50 | almost completely unaffected | almost completely unaffected | almost completely unaffected | almost completely unaffected | almost completely unaffected | almost completely unaffected | almost completely unaffected | almost completely unaffected | effect on mirolase activity (mirolase; listed as Cpd 9): did not affect; effect on karilysin activity (karilysin; listed as Cpd 9): did not affect; effect on forsilysin activity (forsilysin; listed as Cpd 9): did not affect; effect on RgpB activity (RgpB; listed as Cpd 9): did not affect; effect on Kgp activity (Kgp; listed as Cpd 9): did not affect; effect on thrombin activity (human thrombin; listed as Cpd 9): did not affect; effect on plasmin activity (human plasmin; listed as Cpd 9): did not affect; effect on trypsin activity (bovine trypsin; listed as Cpd 9): did not affect; effect on proteolytic activity in aliquots during proM^wt activation (promirolysin (proM^wt); [9]): significantly decreased; reduction of mirolysin activity after 216 h of proM^wt activation (promirolysin (proM^wt); [9]): 30%; effect on proM^wt maturation (35 kDa zymogen to 31 kDa form, SDS-PAGE) (promirolysin (proM^wt); proM^wt 70 µM, 50 M excess of compound, 37 °C, 216 h): significantly slowed; time to complete proM^wt maturation (promirolysin (proM^wt); proM^wt 70 µM, 50 M excess of compound, 37 °C, SDS-PAGE): > 216 h |
| CN(NC(=O)CC[C@H](NC(=O)OCc1ccccc1)C(=O)N[C@@H](CCCCN)C(=O)C(=O)NCc1ccccc1)c1ccccc1 [Kyt-36] | – | – | – | – | – | – | – | – | – | – | – | – | – | – | – | Ki [8]: 75 pM |
